Experiments:
[1] = test system: green foxtail; assay: Test Example 4: herbicidal effect by soil treatment (Table 19, symbol G); assay type: in vivo, green foxtail (Setaria viridis)
Procedure, shortened: (§1)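 Scoring uses the grading scale of an earlier test, three weeks post-application. Treatment consists of spraying a diluted emulsion formulation across the surface of sterilized diluvial soil in which seeds are buried near 1.5 cm deep; boxes are kept in a greenhouse between 25° C. and 30° C.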

[2] = test system: barnyard grass; assay: Test Example 5: herbicidal effect by foliage application, plastic box (Table 20, symbol H); assay type: in vivo, barnyard grass (Echinochloa crus-galli); conditions: foliage application; for H (barnyard grass) herbicidal effect grade: evaluated 3 weeks after application; for H: barnyard grass, herbicidal effect grade: three weeks after application
Procedure, shortened: (§2)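 Post-emergence foliar test in sterilized diluvial soil. Compound applied as water-diluted emulsion at a predetermined rate to 14-day-old plants; evaluation at three weeks.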

[3] = test system: southern crabgrass; assay: Test Example 4: herbicidal effect by soil treatment (Table 19, symbol F); assay type: in vivo, southern crabgrass (Digitaria ciliaris)
Procedure, shortened: as §1

[4] = test system: persian speedwell; assay: Test Example 5: herbicidal effect by foliage application, plastic box (Table 20, symbol R); assay type: in vivo, Persian speedwell (Veronica persica); conditions: foliage application; for R (persian speedwell) herbicidal effect grade: evaluated 3 weeks after application; for R: persian speedwell, herbicidal effect grade: three weeks after application
Procedure, shortened: as §2

[5] = test system: Japanese bulrush; assay: Test Example 1: herbicidal activity, application before weed generation under submerged conditions (Table 16, symbol B); assay type: in vivo, Japanese bulrush (Schoenoplectus juncoides)
Procedure, shortened: (§3)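 Alluvial soil was flooded to 4 cm depth, weed seeds were sown mixed and 2.5-leaf rice seedlings were transplanted. On sowing day, the compound's emulsion, diluted in water to a set dose, was applied to the water surface. Plants grew at 25–30 °C and were scored 0–5 after three weeks.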

[6] = test system: rice flat sedge; assay: Test Example 3: herbicidal effect by foliage application, Wagner pot (Table 18, symbol E); assay type: in vivo, rice flat sedge (Cyperus iria)
Procedure, shortened: (§4)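 Plants were sown in alluvial soil held under 0.1–0.5 cm standing water and grown 14 days in a greenhouse at 25–30 °C. An emulsifiable formulation, water-diluted to the set dose, was then sprayed onto the foliage, and effects were scored three weeks later using previously defined criteria.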

[7] = test system: windgrass; assay: Test Example 5: herbicidal effect by foliage application, plastic box (Table 20, symbol L); assay type: in vivo, windgrass (Apera spica-venti); conditions: foliage application; for L (windgrass) herbicidal effect grade: evaluated 3 weeks after application; for L: windgrass, herbicidal effect grade: three weeks after application
Procedure, shortened: as §2

[8] = test system: blackgrass; assay: Test Example 5: herbicidal effect by foliage application, plastic box (Table 20, symbol J); assay type: in vivo, blackgrass (Alopecurus myosuroides); conditions: foliage application; for J (blackgrass) herbicidal effect grade: evaluated 3 weeks after application; for J: blackgrass, herbicidal effect grade: three weeks after application
Procedure, shortened: as §2

[9] = test system: velvetleaf; assay: Test Example 5: herbicidal effect by foliage application, plastic box (Table 20, symbol M); assay type: in vivo, velvetleaf (Abutilon theophrasti); conditions: foliage application; for M (velvetleaf) herbicidal effect grade: evaluated 3 weeks after application; for M: velvetleaf, herbicidal effect grade: three weeks after application
Procedure, shortened: as §2

[10] = test system: Chinese sprangletop; assay: Test Example 3: herbicidal effect by foliage application, Wagner pot (Table 18, symbol D); assay type: in vivo, chinese sprangletop (Leptochloa chinensis)
Procedure, shortened: as §4

[11] = test system: lambsquarters; assay: Test Example 5: herbicidal effect by foliage application, plastic box (Table 20, symbol O); assay type: in vivo, lambsquarters (Chenopodium album); conditions: foliage application; for O (lambsquarters) herbicidal effect grade: evaluated 3 weeks after application; for O: lambsquarters, herbicidal effect grade: three weeks after application
Procedure, shortened: as §2

[12] = test system: barnyard grass; assay: Test Example 3: herbicidal effect by foliage application, Wagner pot (Table 18, symbol H); assay type: in vivo, barnyard grass (Echinochloa crus-galli)
Procedure, shortened: as §4

[13] = test system: redroot pigweed; assay: Test Example 4: herbicidal effect by soil treatment (Table 19, symbol N); assay type: in vivo, redroot pigweed (Amaranthus retroflexus)
Procedure, shortened: as §1

[14] = test system: redroot pigweed; assay: Test Example 5: herbicidal effect by foliage application, plastic box (Table 20, symbol N); assay type: in vivo, redroot pigweed (Amaranthus retroflexus); conditions: foliage application; for N (redroot pigweed) herbicidal effect grade: evaluated 3 weeks after application; for N: redroot pigweed, herbicidal effect grade: three weeks after application
Procedure, shortened: as §2

[15] = test system: green foxtail; assay: Test Example 5: herbicidal effect by foliage application, plastic box (Table 20, symbol G); assay type: in vivo, green foxtail (Setaria viridis); conditions: foliage application; for G (green foxtail) herbicidal effect grade: evaluated 3 weeks after application; for G: green foxtail, herbicidal effect grade: three weeks after application
Procedure, shortened: as §2

[16] = test system: late watergrass; assay: Test Example 1: herbicidal activity, application before weed generation under submerged conditions (Table 16, symbol A); assay type: in vivo, late watergrass (Echinochloa oryzicola)
Procedure, shortened: as §3

[17] = test system: blackgrass; assay: Test Example 4: herbicidal effect by soil treatment (Table 19, symbol J); assay type: in vivo, blackgrass (Alopecurus myosuroides)
Procedure, shortened: as §1

[18] = test system: Italian ryegrass; assay: Test Example 5: herbicidal effect by foliage application, plastic box (Table 20, symbol K); assay type: in vivo, Italian ryegrass (Lolium multiflorum); conditions: foliage application; for K (Italian ryegrass) herbicidal effect grade: evaluated 3 weeks after application; for K: Italian ryegrass, herbicidal effect grade: three weeks after application
Procedure, shortened: as §2

[19] = amount of applied herbicide 402 g/ha
[20] = amount of applied herbicide 320 g/ha
[21] = amount of applied herbicide 214 g/ha

Compound: CCCC(=O)Oc1c(C)nn(C)c(=O)c1-c1c(-c2ccc(SC(C)C)cc2)oc2ccc(C)cc12 [9-060]
- G: green foxtail, herbicidal effect grade [1, 19]: 3 (Herbicidal rate of 40% or more and less than 70%)
- H (barnyard grass) herbicidal effect grade ([2]; 402 g/ha): 3 (Herbicidal rate of 40% or more and less than 70%)
- F: southern crabgrass, herbicidal effect grade [3, 19]: 1 (Herbicidal rate of 5% or more and less than 20%)
- R (persian speedwell) herbicidal effect grade ([4]; 402 g/ha): 5 (Herbicidal rate of 90% or more (almost completely withered))
- Herbicidal effect, B: Japanese bulrush [5, 19]: 4 (Herbicidal rate of 70% or more and less than 90%)
- Herbicidal effect on E (rice flat sedge), foliage application [6, 19]: 5 (Herbicidal rate of 90% or more (almost completely withered))
- L (windgrass) herbicidal effect grade ([7]; 402 g/ha): 0 (Herbicidal rate of 5% or less (almost no effect))
- J (blackgrass) herbicidal effect grade ([8]; 402 g/ha): 1 (Herbicidal rate of 5% or more and less than 20%)
- M (velvetleaf) herbicidal effect grade ([9]; 402 g/ha): 5 (Herbicidal rate of 90% or more (almost completely withered))
- Herbicidal effect on D (Chinese sprangletop), foliage application [10, 19]: 2 (Herbicidal rate of 20% or more and less than 40%)
- O (lambsquarters) herbicidal effect grade ([11]; 402 g/ha): 5 (Herbicidal rate of 90% or more (almost completely withered))
- Herbicidal effect on H (barnyard grass), foliage application [12, 19]: 4 (Herbicidal rate of 70% or more and less than 90%)
- N: redroot pigweed, herbicidal effect grade [13, 19]: 5 (Herbicidal rate of 90% or more (almost completely withered))
- N (redroot pigweed) herbicidal effect grade ([14]; 402 g/ha): 5 (Herbicidal rate of 90% or more (almost completely withered))
- G (green foxtail) herbicidal effect grade ([15]; 402 g/ha): 5 (Herbicidal rate of 90% or more (almost completely withered))
- Herbicidal effect, A: late watergrass [16, 19]: 5 (Herbicidal rate of 90% or more (almost completely withered))
- J: blackgrass, herbicidal effect grade [17, 19]: 0 (Herbicidal rate of 5% or less (almost no effect))
- K (Italian ryegrass) herbicidal effect grade ([18]; 402 g/ha): 5 (Herbicidal rate of 90% or more (almost completely withered))

Compound: CCCC(=O)Oc1c(C)nn(C)c(=O)c1-c1c(-c2ccc(COC)cc2)oc2ccc(C)cc12 [9-062]
- G: green foxtail, herbicidal effect grade [1, 20]: 5 (Herbicidal rate of 90% or more (almost completely withered))
- H (barnyard grass) herbicidal effect grade ([2]; 320 g/ha): 4 (Herbicidal rate of 70% or more and less than 90%)
- F: southern crabgrass, herbicidal effect grade [3, 20]: 4 (Herbicidal rate of 70% or more and less than 90%)
- R (persian speedwell) herbicidal effect grade ([4]; 320 g/ha): 5 (Herbicidal rate of 90% or more (almost completely withered))
- Herbicidal effect, B: Japanese bulrush [5, 20]: 5 (Herbicidal rate of 90% or more (almost completely withered))
- Herbicidal effect on E (rice flat sedge), foliage application [6, 20]: 5 (Herbicidal rate of 90% or more (almost completely withered))
- L (windgrass) herbicidal effect grade ([7]; 320 g/ha): 0 (Herbicidal rate of 5% or less (almost no effect))
- J (blackgrass) herbicidal effect grade ([8]; 320 g/ha): 4 (Herbicidal rate of 70% or more and less than 90%)
- M (velvetleaf) herbicidal effect grade ([9]; 320 g/ha): 5 (Herbicidal rate of 90% or more (almost completely withered))
- Herbicidal effect on D (Chinese sprangletop), foliage application [10, 20]: 3 (Herbicidal rate of 40% or more and less than 70%)
- O (lambsquarters) herbicidal effect grade ([11]; 320 g/ha): 5 (Herbicidal rate of 90% or more (almost completely withered))
- Herbicidal effect on H (barnyard grass), foliage application [12, 20]: 5 (Herbicidal rate of 90% or more (almost completely withered))
- N: redroot pigweed, herbicidal effect grade [13, 20]: 5 (Herbicidal rate of 90% or more (almost completely withered))
- N (redroot pigweed) herbicidal effect grade ([14]; 320 g/ha): 5 (Herbicidal rate of 90% or more (almost completely withered))
- G (green foxtail) herbicidal effect grade ([15]; 320 g/ha): 5 (Herbicidal rate of 90% or more (almost completely withered))
- Herbicidal effect, A: late watergrass [16, 20]: 5 (Herbicidal rate of 90% or more (almost completely withered))
- J: blackgrass, herbicidal effect grade [17, 20]: 4 (Herbicidal rate of 70% or more and less than 90%)
- K (Italian ryegrass) herbicidal effect grade ([18]; 320 g/ha): 5 (Herbicidal rate of 90% or more (almost completely withered))

Compound: COc1ccc2c(-c3c(O)c(C)nn(C)c3=O)c(-c3ccccc3OC)sc2c1 [Compound No. 3-065, 5-hydroxy-4-(6-methoxy-2-(2-methoxyphenyl)benzo[b]thiophen-3-yl)-2,6-dimethylpyridazin-3(2H)-one]
- G: green foxtail, herbicidal effect grade [1, 21]: 5 (Herbicidal rate of 90% or more (almost completely withered))
- H: barnyard grass, herbicidal effect grade ([2]; 214 g/ha): 5 (Herbicidal rate of 90% or more (almost completely withered))
- F: southern crabgrass, herbicidal effect grade [3, 21]: 3 (Herbicidal rate of 40% or more and less than 70%)
- R: persian speedwell, herbicidal effect grade ([4]; 214 g/ha): 5 (Herbicidal rate of 90% or more (almost completely withered))
- Herbicidal effect, B: Japanese bulrush [5, 21]: 3 (Herbicidal rate of 40% or more and less than 70%)
- herbicidal effect on rice flat sedge (E) ([6]; 214 g/ha): 5 (Herbicidal rate of 90% or more (almost completely withered))
- L: windgrass, herbicidal effect grade ([7]; 214 g/ha): 4 (Herbicidal rate of 70% or more and less than 90%)
- J: blackgrass, herbicidal effect grade ([8]; 214 g/ha): 5 (Herbicidal rate of 90% or more (almost completely withered))
- M: velvetleaf, herbicidal effect grade ([9]; 214 g/ha): 5 (Herbicidal rate of 90% or more (almost completely withered))
- herbicidal effect on Chinese sprangletop (D) ([10]; 214 g/ha): 2 (Herbicidal rate of 20% or more and less than 40%)
- O: lambsquarters, herbicidal effect grade ([11]; 214 g/ha): 3 (Herbicidal rate of 40% or more and less than 70%)
- herbicidal effect on barnyard grass (H) ([12]; 214 g/ha): 5 (Herbicidal rate of 90% or more (almost completely withered))
- N: redroot pigweed, herbicidal effect grade [13, 21]: 4 (Herbicidal rate of 70% or more and less than 90%)
- N: redroot pigweed, herbicidal effect grade ([14]; 214 g/ha): 3 (Herbicidal rate of 40% or more and less than 70%)
- G: green foxtail, herbicidal effect grade ([15]; 214 g/ha): 5 (Herbicidal rate of 90% or more (almost completely withered))
- Herbicidal effect, A: late watergrass [16, 21]: 1 (Herbicidal rate of 5% or more and less than 20%)
- J: blackgrass, herbicidal effect grade [17, 21]: 3 (Herbicidal rate of 40% or more and less than 70%)
- K: Italian ryegrass, herbicidal effect grade ([18]; 214 g/ha): 4 (Herbicidal rate of 70% or more and less than 90%)

Compound: COc1ccc2c(-c3c(O)c(Cl)nn(C)c3=O)c(-c3ccccc3OC)sc2c1 [Compound No. 3-088, 6-chloro-5-hydroxy-4-(6-methoxy-2-(2-methoxyphenyl)benzo[b]thiophen-3-yl)-2-methylpyridazin-3(2H)-one]
- G: green foxtail, herbicidal effect grade [1, 20]: 5 (Herbicidal rate of 90% or more (almost completely withered))
- H: barnyard grass, herbicidal effect grade ([2]; 320 g/ha): 4 (Herbicidal rate of 70% or more and less than 90%)
- F: southern crabgrass, herbicidal effect grade [3, 20]: 4 (Herbicidal rate of 70% or more and less than 90%)
- R: persian speedwell, herbicidal effect grade ([4]; 320 g/ha): 5 (Herbicidal rate of 90% or more (almost completely withered))
- Herbicidal effect, B: Japanese bulrush [5, 20]: 5 (Herbicidal rate of 90% or more (almost completely withered))
- herbicidal effect on rice flat sedge (E) ([6]; 320 g/ha): 5 (Herbicidal rate of 90% or more (almost completely withered))
- L: windgrass, herbicidal effect grade ([7]; 320 g/ha): 3 (Herbicidal rate of 40% or more and less than 70%)
- J: blackgrass, herbicidal effect grade ([8]; 320 g/ha): 3 (Herbicidal rate of 40% or more and less than 70%)
- M: velvetleaf, herbicidal effect grade ([9]; 320 g/ha): 4 (Herbicidal rate of 70% or more and less than 90%)
- herbicidal effect on Chinese sprangletop (D) ([10]; 320 g/ha): 4 (Herbicidal rate of 70% or more and less than 90%)
- O: lambsquarters, herbicidal effect grade ([11]; 320 g/ha): 4 (Herbicidal rate of 70% or more and less than 90%)
- herbicidal effect on barnyard grass (H) ([12]; 320 g/ha): 5 (Herbicidal rate of 90% or more (almost completely withered))
- N: redroot pigweed, herbicidal effect grade [13, 20]: 5 (Herbicidal rate of 90% or more (almost completely withered))
- N: redroot pigweed, herbicidal effect grade ([14]; 320 g/ha): 4 (Herbicidal rate of 70% or more and less than 90%)
- G: green foxtail, herbicidal effect grade ([15]; 320 g/ha): 5 (Herbicidal rate of 90% or more (almost completely withered))
- Herbicidal effect, A: late watergrass [16, 20]: 5 (Herbicidal rate of 90% or more (almost completely withered))
- J: blackgrass, herbicidal effect grade [17, 20]: 0 (Herbicidal rate of 5% or less (almost no effect))
- K: Italian ryegrass, herbicidal effect grade ([18]; 320 g/ha): 0 (Herbicidal rate of 5% or less (almost no effect))

Source: patent publication US20230085307A1, “PYRIDAZINONE COMPOUND AND HERBICIDE” (NISSAN CHEMICAL CORPORATION, priority 2019, published 2023)
